Measured values: US20250230193A1, “CYCLIC COMPOUND HAVING SELECTIVE KRAS INHIBITORY EFFECT ON HRAS AND NRAS” (CHUGAI SEIYAKU KABUSHIKI KAISHA, priority 2022, published 2025)

Assays:
[1] = target: GDP-bound NRAS wild-type protein (Homo sapiens, UniProt P01111); assay: Binding to NRAS by surface plasmon resonance (SPR), Single Cycle Kinetics; conditions: SPR; KD ratio class
[2] = system: human lung cancer strain NCI-H441; assay: cells; conditions: NCI-H441, 96 h, read-out: NCI-H441 IC50 (nM)
[3] = target: GDP-bound HRAS wild-type protein (Homo sapiens, UniProt P01112); assay: Binding to HRAS by surface plasmon resonance (SPR), Single Cycle Kinetics; conditions: SPR; KD ratio class
Chain of GDP-bound HRAS wild-type protein (P01112 whole entry): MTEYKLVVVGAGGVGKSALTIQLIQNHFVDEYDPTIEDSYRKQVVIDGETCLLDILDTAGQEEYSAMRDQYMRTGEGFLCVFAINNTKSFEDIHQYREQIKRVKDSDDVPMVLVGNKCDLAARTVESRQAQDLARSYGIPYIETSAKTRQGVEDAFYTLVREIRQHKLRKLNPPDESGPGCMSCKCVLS

Chain of GDP-bound NRAS wild-type protein (P01111 whole entry): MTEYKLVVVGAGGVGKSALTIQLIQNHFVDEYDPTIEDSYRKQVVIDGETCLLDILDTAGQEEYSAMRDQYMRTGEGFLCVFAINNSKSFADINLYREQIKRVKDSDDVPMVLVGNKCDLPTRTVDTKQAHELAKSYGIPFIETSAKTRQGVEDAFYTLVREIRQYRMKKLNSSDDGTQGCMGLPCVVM

| Compound | IC50 [2] [nM] | NRAS/KRAS (ratio of KD value for GDP-bound NRAS wild-type protein to KD value for KRAS) [1] | HRAS/KRAS (ratio of KD value for GDP-bound HRAS wild-type protein to KD value for KRAS) [3] |
| --- | --- | --- | --- |
| CCO[C@@H]1C[C@H]2C(=O)NC3(CCC3)C(=O)N(C)[C@@H](C3CCCC3)C(=O)N(C)[C@H](C(=O)N(C)C)CC(=O)N(C)[C@@H](CC3CCCC3)C(=O)N[C@@H]([C@@H](C)CC)C(=O)N(C)CC(=O)N(C)[C@H]3C/C=C\CCN(C3=O)[C@@H](CC3CCC(F)(F)CC3)C(=O)N(C)CC(=O)N[C@@H](CCc3cc(F)c(C(F)(F)F)c(F)c3)C(=O)N2C1 [PP1458] | 18.2 | A (a compound having 10 or more and less than 20 is denoted as A) | A (a compound having 10 or more and less than 20 is denoted as A) |
| CCO[C@@H]1C[C@H]2C(=O)NC3(CCC3)C(=O)N(C)[C@@H](C(CC)CC)C(=O)N(C)[C@H](C(=O)N(C)C)CC(=O)N(C)[C@@H](CC(C)C)C(=O)N[C@@H]([C@@H](C)CC)C(=O)N(C)CC(=O)N(C)[C@H]3C/C=C\CCN(C3=O)[C@@H](CC3CCC(F)(F)CC3)C(=O)N(C)CC(=O)N[C@@H](CCc3cc(F)c(C(F)(F)F)c(F)c3)C(=O)N2C1 [PP1433] | 44.4 | AA (a compound having 20 or more is denoted as AA) | A (a compound having 10 or more and less than 20 is denoted as A) |
| CC[C@H](C)[C@@H]1NC(=O)[C@H](CC2CCC2)N(C)C(=O)C[C@@H](C(=O)N(C)C)N(C)C(=O)[C@H](C2CCCC2)N(C)C(=O)C2(CCCC2)NC(=O)[C@@H]2CCCN2C(=O)[C@H](CCc2cc(F)c(C(F)(F)F)c(F)c2)NC(=O)CN(C)C(=O)[C@H](Cc2ccc(C(F)(F)F)cc2)N2C[C@H](C)CC[C@@H](C2=O)N(C)C(=O)CN(C)C1=O [PP1386] | 4.2 | B (a compound having 3 or more and less than 10 is denoted as B) | B (a compound having 3 or more and less than 10 is denoted as B) |
| CCO[C@@H]1C[C@H]2C(=O)NC3(CCC3)C(=O)N(C)[C@@H](C3CCCC3)C(=O)N(C)[C@H](C(=O)N(C)C)CC(=O)N(C)[C@@H](CC3CC3)C(=O)N[C@@H]([C@@H](C)CC)C(=O)N(C)CC(=O)N(C)[C@H]3C/C=C\CCN(C3=O)[C@@H](Cc3ccc(F)cc3C)C(=O)N(C)CC(=O)N[C@@H](CCc3cc(F)c(Cl)c(F)c3)C(=O)N2C1 [PP1477] | 309 | A (a compound having 10 or more and less than 20 is denoted as A) | B (a compound having 3 or more and less than 10 is denoted as B) |
| CC[C@H](C)[C@@H]1NC(=O)[C@H](CC(C)C)N(C)C(=O)C[C@@H](C(=O)N2CCOCC2)N(C)C(=O)[C@H](C2CCCC2)N(C)C(=O)C2(CCC2)NC(=O)[C@@H]2CCCN2C(=O)[C@H](CCc2cc(F)c(C(F)(F)F)c(F)c2)NC(=O)CN(C)C(=O)[C@H](Cc2ccc(C(F)(F)F)cc2)N2C[C@H](C)[C@H](C)C[C@@H](C2=O)N(C)C(=O)[C@@H]2CCN2C1=O [PP1367] | 29.3 | A (a compound having 10 or more and less than 20 is denoted as A) | B (a compound having 3 or more and less than 10 is denoted as B) |
| CCO[C@@H]1C[C@H]2C(=O)NC3(CCCC3)C(=O)N(C)[C@@H](C3CCCC3)C(=O)N(C)[C@H](C(=O)N3CCOCC3)CC(=O)N(C)[C@@H](CC)C(=O)N[C@@H]([C@@H](C)CC)C(=O)N(C)CC(=O)N(C)[C@H]3CC[C@@H](C)CN(C3=O)[C@@H](Cc3ccc(C(F)(F)F)cc3)C(=O)N(C)CC(=O)N[C@@H](CCc3cc(F)c(C(F)(F)F)c(F)c3)C(=O)N2C1 [PP1371] | 5.1 | A (a compound having 10 or more and less than 20 is denoted as A) | B (a compound having 3 or more and less than 10 is denoted as B) |
| CCO[C@@H]1C[C@H]2C(=O)NC3(CCC3)C(=O)N(C)[C@@H](C(CC)CC)C(=O)N(C)[C@H](C(=O)N(C)C)CC(=O)N(C)[C@@H](CC)C(=O)N[C@@H]([C@@H](C)CC)C(=O)N(C)CC(=O)N(C)[C@H]3C/C=C\CCN(C3=O)[C@@H](Cc3ccc(C(F)(F)F)cc3)C(=O)N(C)CC(=O)N[C@@H](CCc3ccc(Cl)c(Cl)c3)C(=O)N2C1 [PP1215] | 33.4 | AA (a compound having 20 or more is denoted as AA) | A (a compound having 10 or more and less than 20 is denoted as A) |
| CCO[C@@H]1C[C@H]2C(=O)NC3(CCC3)C(=O)N(C)[C@@H](C(CC)CC)C(=O)N(C)[C@H](C)CC(=O)N(C)[C@@H](CC3CC3)C(=O)N[C@@H]([C@@H](C)CC)C(=O)N(C)CC(=O)N(C)[C@H]3C/C=C\CCN(C3=O)[C@@H](Cc3ccc(F)cc3C)C(=O)N(C)CC(=O)N[C@@H](CCc3cc(F)c(C(F)(F)F)c(F)c3)C(=O)N2C1 [PP1520] | 575 | A (a compound having 10 or more and less than 20 is denoted as A) | A (a compound having 10 or more and less than 20 is denoted as A) |

Further lines, with some results ahead:

| IC50 [2] [nM] | Compound | NRAS/KRAS (ratio of KD value for GDP-bound NRAS wild-type protein to KD value for KRAS) [1] | HRAS/KRAS (ratio of KD value for GDP-bound HRAS wild-type protein to KD value for KRAS) [3] |
| --- | --- | --- | --- |
| 3.8 | CCO[C@@H]1C[C@H]2C(=O)NC3(CCC3)C(=O)N(C)[C@@H](C3CCCC3)C(=O)N(C)[C@H](C(=O)N3CCCC3)CC(=O)N(C)[C@@H](CC(C)C)C(=O)N[C@@H]([C@@H](C)CC)C(=O)N(C)CC(=O)N(C)[C@H]3C/C=C\CCN(C3=O)[C@@H](Cc3ccc(C)cc3)C(=O)N(C)CC(=O)N[C@@H](CCc3cc(F)c(C(F)(F)F)c(F)c3)C(=O)N2C1 [PP1416] | A (a compound having 10 or more and less than 20 is denoted as A) | A (a compound having 10 or more and less than 20 is denoted as A) |
| 14.1 | CCO[C@@H]1C[C@H]2C(=O)NC3(CCC3)C(=O)N(C)[C@@H](C3CCCC3)C(=O)N(C)[C@H](C(=O)N3CCOCC3)CC(=O)N(C)[C@@H](CC3CCC3)C(=O)N[C@@H]([C@@H](C)CC)C(=O)N(C)CC(=O)N(C)[C@H]3C/C=C\CCN(C3=O)[C@@H](Cc3ccc(C(F)(F)F)cc3)C(=O)N(C)CC(=O)N[C@@H](CCc3cc(F)c(C(F)(F)F)c(F)c3)C(=O)N2C1 [PP1422] | AA (a compound having 20 or more is denoted as AA) | A (a compound having 10 or more and less than 20 is denoted as A) |
| 12.3 | CCO[C@@H]1C[C@H]2C(=O)NC3(CCC3)C(=O)N(C)[C@@H](C3CCCC3)C(=O)N(C)[C@H](C(=O)N3CCOCC3)CC(=O)N(C)[C@@H](CC(C)C)C(=O)N[C@@H]([C@@H](C)CC)C(=O)N(C)CC(=O)N(C)[C@H]3C/C=C\CCN(C3=O)[C@@H](Cc3ccc(C(F)(F)F)cc3)C(=O)N(C)CC(=O)N[C@@H](CCc3cc(F)c(C(F)(F)F)c(F)c3)C(=O)N2C1 [PP1282] | A (a compound having 10 or more and less than 20 is denoted as A) | A (a compound having 10 or more and less than 20 is denoted as A) |
